One data set has as its target T1, CYP11A1 (Homo sapiens, UniProt P05108).
T1 construct: human H295R adrenocortical carcinoma cell line was used as source of enzyme; endogenous in cells; host or cells: H295R human adrenocortical carcinoma cells
T1 sequence (P05108 40-521): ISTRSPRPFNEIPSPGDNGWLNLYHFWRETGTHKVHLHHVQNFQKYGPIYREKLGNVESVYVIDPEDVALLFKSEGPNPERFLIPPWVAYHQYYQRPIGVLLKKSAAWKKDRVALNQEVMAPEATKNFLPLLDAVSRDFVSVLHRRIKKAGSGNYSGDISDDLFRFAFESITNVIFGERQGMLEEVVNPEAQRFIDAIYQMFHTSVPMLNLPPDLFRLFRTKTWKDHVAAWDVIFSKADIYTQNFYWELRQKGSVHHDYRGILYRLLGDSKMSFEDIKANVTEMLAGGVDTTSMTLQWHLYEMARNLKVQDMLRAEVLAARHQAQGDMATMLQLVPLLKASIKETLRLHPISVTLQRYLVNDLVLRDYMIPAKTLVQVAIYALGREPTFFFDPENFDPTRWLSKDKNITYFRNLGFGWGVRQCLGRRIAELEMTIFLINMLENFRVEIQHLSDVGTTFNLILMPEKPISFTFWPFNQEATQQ
The data set can be described thus: CYP11A1 inhibition, isocaproic acid release assay (IARA) in H295R cells. As to conditions: human H295R adrenocortical carcinoma cell line, three days, 3 nM [24,25-3H]-labelled cholesterol; read-out: IC50 on CYP11A1 inhibition (Group). It is filed as cell-based. As for the experimental part:
The ability of the test compounds to inhibit conversion of cholesterol to pregnenolone and isocaproic acid was measured by modification of isocaproic acid release assay (IARA) described by Ruangwises et al. (Biology of Reproduction 1991; 45(1):143-50) except that human H295R adrenocortical carcinoma cell line was used as source of enzyme and extraction was done with dextran-coated charcoal suspension (Isomaa, V. et al., Endocrinology 1982; 111(3):833-843). […] To determine the half maximal inhibitory concentration (IC50) of the test compounds on CYP11A1 inhibition, the cells were treated for three days with increasing concentrations of the test compounds in the presence of 3 nM [24,25-3H]-labelled cholesterol (American Radiolabelled Chemicals). The final DMSO concentration was 1%. Cell culture medium was extracted with dextran-coated charcoal suspension and the radiolabelled isocaproic acid was determined by mixing 100 μl of supernatant fraction in 200 μl of scintillation fluid (OptiPhase SuperMix, Perkin Elmer). Radioactivity was measured using a Microbeta scintillation counter (1450 MicroBeta Trilux, Wallac). All the test compounds were studied at 10 concentrations in duplicates.

Data set [1] deals with recombinant human cytochrome P450 (CYP) CYP3A4 enzyme (Homo sapiens, UniProt P08684). The experiment in a line: Formation of reactive metabolites, trapping with GSH, KCN and SCA. The conditions noted are these: recombinant human CYP3A4, NADPH, 1 hour, pH 7.4.
Sequence of recombinant human cytochrome P450 (CYP) CYP3A4 enzyme (P08684 whole entry): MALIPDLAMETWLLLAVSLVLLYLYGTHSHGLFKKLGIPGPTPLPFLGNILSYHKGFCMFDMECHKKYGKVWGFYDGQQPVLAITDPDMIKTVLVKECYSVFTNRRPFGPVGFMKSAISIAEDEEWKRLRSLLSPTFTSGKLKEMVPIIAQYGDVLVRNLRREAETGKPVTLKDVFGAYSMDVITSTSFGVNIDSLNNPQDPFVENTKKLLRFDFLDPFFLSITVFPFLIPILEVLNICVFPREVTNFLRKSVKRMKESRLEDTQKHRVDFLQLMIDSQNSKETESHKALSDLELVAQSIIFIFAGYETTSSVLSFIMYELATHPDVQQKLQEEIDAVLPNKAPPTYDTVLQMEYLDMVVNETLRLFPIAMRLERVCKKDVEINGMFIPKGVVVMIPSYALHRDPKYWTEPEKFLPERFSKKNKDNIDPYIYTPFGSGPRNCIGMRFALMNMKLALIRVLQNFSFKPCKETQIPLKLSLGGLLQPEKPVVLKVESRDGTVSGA
Method: Formation of reactive metabolites was studied as described in Grillo, M., Expert Opin. […] (2015), 11(8):1281-1302 by incubating test compounds with recombinant human cytochrome P450 (CYP) CYP3A4 enzyme in the presence of cofactor NADPH and trapping agents glutathione (GSH), potassium cyanide (KCN) and semicarbazide (SCA).
Compounds were dissolved in DMSO and diluted in phosphate buffer (pH 7.4) to obtain the final incubation concentration 1 or 10 μM. Compounds were incubated with one trapping agent (mixture of unlabelled and ^13C^15N-labelled trapper 1:1) at a time with cofactor NADPH (actual samples) and without NADPH (control samples). Incubation time was 1 hour. Samples at timepoint 0 min (before incubation) and 60 min (after incubation) were analysed using ultra high-pressure liquid chromatography (UHPLC) coupled with high-resolution mass spectrometry (HRMS). Tentative identification of trapped metabolites was based on accurate masses of protonated molecules and product ion spectra of found metabolites and accurate mass differences between unlabelled and labelled trapping agents reacted with reactive metabolites.
The metabolites were classified as “major” if the peak area after incubation was over 10% of parent peak area before incubation. If peak area was between 1% and 10%, metabolites were classified as “minor” and if peak area was less than 1%, metabolite was classified as “trace”.

A word on the IC50: it is the midpoint of a concentration-inhibition curve.

As to `CS(=O)(=O)N1CCC(COc2coc(CN3Cc4ccc(-n5cccn5)cc4C3)cc2=O)CC1` [Compound 7, 2-((5-(1H-Pyrazol-1-yl)isoindolin-2-yl)methyl)-5-((1-(methylsulfonyl)piperidin-4-yl)methoxy)-4H-pyran-4-one], the IC50 on CYP11A1 fell in the range of 101 to 200 nM. Besides, in data set [1] (test compound 10 μM), the “Number of CN trapped metabolites” value is on record as 0, the “Number of GSH trapped metabolites” value is 0 and the “Number of SCA trapped metabolites” value is on record as 1 (trace).

On to `CS(=O)(=O)N1CCC(COc2coc(CN3Cc4ccc(-c5nnco5)cc4C3)cc2=O)CC1` [Compound 1, 2-((5-(1,3,4-Oxadiazol-2-yl)isoindolin-2-yl)methyl)-5-(((methylsulfonyl)piperidin-4-yl)methoxy)-4H-pyran-4-one], for which the IC50 on CYP11A1 was 101 to 200 nM. Besides, in data set [1] (test compound 10 μM), the “Number of CN trapped metabolites” value came out at 0, the “Number of GSH trapped metabolites” value was found to be 0 and the “Number of SCA trapped metabolites” value is 2 (trace).

As to `C/C(=N\O)c1ccc2c(c1)CN(Cc1cc(=O)c(OCC3CCN(S(C)(=O)=O)CC3)co1)C2` [Compound 90, (E)-2-((5-(1-(Hydroxyimino)ethyl)isoindolin-2-yl)methyl)-5-((1-(methylsulfonyl)piperidin-4-yl)methoxy)-4H-pyran-4-one], the 50% inhibitory concentration (IC50) on CYP11A1 was 101 to 200 nM. In data set [1] (test compound 10 μM), the “Number of CN trapped metabolites” value is 0, the “Number of GSH trapped metabolites” value came out at 0 and the “Number of SCA trapped metabolites” value is recorded as 1 (trace).

Turning to `CS(=O)(=O)N1CCC(COc2coc(CN3Cc4ccc(-c5cnco5)cc4C3)cc2=O)CC1` [Compound 2, 5-((1-(Methylsulfonyl)piperidin-4-yl)methoxy)-2-((5-(oxazol-5-yl)isoindolin-2-yl)methyl)-4H-pyran-4-one], the half-inhibitory concentration (IC50) at CYP11A1 is 101 to 200 nM. Also, in data set [1] (test compound 10 μM), the “Number of CN trapped metabolites” value is 0, the “Number of GSH trapped metabolites” value was determined as 0 and the “Number of SCA trapped metabolites” value is recorded as 3 (trace).

`CC(O)c1ccc2c(c1)CN(Cc1cc(=O)c(OCC3CCN(S(C)(=O)=O)CC3)co1)C2` (centres unmarked) [Compound 93, 2-((5-(1-Hydroxyethyl)isoindolin-2-yl)methyl)-5-((1-(methylsulfonyl)piperidin-4-yl)methoxy)-4H-pyran-4-one]: the half-inhibitory concentration (IC50) at CYP11A1 is 201 to 2000 nM. For the same molecule, in data set [1] (test compound 10 μM), the “Number of CN trapped metabolites” value was 0, the “Number of GSH trapped metabolites” value is given as 0 and the “Number of SCA trapped metabolites” value was 3 (trace).

On to `CC(c1cc(=O)c(OCC2CCN(S(C)(=O)=O)CC2)co1)N1Cc2ccc(-c3ncco3)cc2C1` (centres unmarked) [Compound 17b, 5-((1-(Methylsulfonyl)piperidin-4-yl)methoxy)-2-(1-(5-(oxazol-2-yl)isoindolin-2-yl)ethyl)-4H-pyran-4-one], for which, in data set [1] (test compound 10 μM), the “Number of CN trapped metabolites” value was found to be 0, the “Number of GSH trapped metabolites” value is 0 and the “Number of SCA trapped metabolites” value is 1 (trace).

Consider `CS(=O)(=O)c1cc(CN2Cc3ccc(-c4nnco4)cc3C2)ccc1OCC1CCN(S(C)(=O)=O)CC1` [Compound 10, 2-(2-(3-(Methylsulfonyl)-4-((1-(methylsulfonyl)piperidin-4-yl)methoxy)benzyl)-isoindolin-5-yl)-1,3,4-oxadiazole], for which the IC50 on CYP11A1 was in the range of 101 to 200 nM. Moreover, in data set [1] (test compound 10 μM), the “Number of CN trapped metabolites” value is recorded as 1 (trace), the “Number of GSH trapped metabolites” value is 0 and the “Number of SCA trapped metabolites” value is given as 2 (trace).

As to `CS(=O)(=O)N1CCC(COc2coc(CN3Cc4ccc(-c5ncon5)cc4C3)cc2=O)CC1` [Compound 8, 2-((5-(1,2,4-Oxadiazol-3-yl)isoindolin-2-yl)methyl)-5-((1-(methylsulfonyl)-piperidin-4-yl)methoxy)-4H-pyran-4-one], on CYP11A1, the IC50 lay within 101 to 200 nM. In data set [1] (test compound 10 μM), the “Number of CN trapped metabolites” value worked out at 0 and the “Number of GSH trapped metabolites” value is reported as 1 (trace).

Take `C[C@H](c1cc(=O)c(OCC2CCN(S(C)(=O)=O)CC2)co1)N1Cc2ccccc2[C@H]2C[C@H]21` (relative stereo) [Compound 24b, 5-((1-(Methylsulfonyl)piperidin-4-yl)methoxy)-2-((R*)-1-((1aR*,7bR*)-1,1a,3,7b-tetrahydro-2H-cyclopropa[c]isoquinolin-2-yl)ethyl)-4H-pyran-4-one]: in data set [1] (test compound 10 μM), the “Number of CN trapped metabolites” value is 2 (trace), the “Number of GSH trapped metabolites” value is listed as 0 and the “Number of SCA trapped metabolites” value was determined as 0.

On to `CC(=O)c1ccc2c(c1)CN(Cc1cc(=O)c(OCC3CCN(S(C)(=O)=O)CC3)co1)C2` [Compound 89, 2-((5-Acetylisoindolin-2-yl)methyl)-5-((1-(methylsulfonyl)piperidin-4-yl)-methoxy)-4H-pyran-4-one], for which the IC50 on CYP11A1 is under 100 nM. Further, in data set [1] (test compound 10 μM), the “Number of CN trapped metabolites” value amounted to 0, the “Number of GSH trapped metabolites” value is 0 and the “Number of SCA trapped metabolites” value was 1 (trace).

For the molecule `CC(C)(C)OC(=O)N1CC2(CC(COc3coc(CN4CCc5ccccc5C4)cc3=O)C2)C1` [Compound 30, tert-Butyl 6-(((6-((3,4-dihydroisoquinolin-2(1H)-yl)methyl)-4-oxo-4H-pyran-3-yl)oxy)methyl)-2-azaspiro[3.3]heptane-2-carboxylate], the 50% inhibitory concentration (IC50) at CYP11A1 was 201 to 2000 nM. For the same molecule, in data set [1] (test compound 1 μM), the “Number of CN trapped metabolites” value is 0, the “Number of GSH trapped metabolites” value was 0 and the “Number of SCA trapped metabolites” value was 0.
